One may read the pIC50 as the negative decadic logarithm of the IC50, by convention in mol/L. Read a high pIC50 as a low IC50.

pIC50: −log10 of the molar value. In brackets after ≈: the same amount, converted by molar mass.

Consider 5 compounds from article PMC11178787, “Development of a natural product optimization strategy for inhibitors against MraY, a promising antibacterial target” (Nature Communications, 2024).

In one experiment the target is MraYSA (S. aureus MraY) (Staphylococcus aureus, UniProt Q2FZ93). In words: fluorescence assay of dansylated lipid I formation. It is filed as biochemical.
MraYSA (S. aureus MraY), sequence (Q2FZ93 whole entry): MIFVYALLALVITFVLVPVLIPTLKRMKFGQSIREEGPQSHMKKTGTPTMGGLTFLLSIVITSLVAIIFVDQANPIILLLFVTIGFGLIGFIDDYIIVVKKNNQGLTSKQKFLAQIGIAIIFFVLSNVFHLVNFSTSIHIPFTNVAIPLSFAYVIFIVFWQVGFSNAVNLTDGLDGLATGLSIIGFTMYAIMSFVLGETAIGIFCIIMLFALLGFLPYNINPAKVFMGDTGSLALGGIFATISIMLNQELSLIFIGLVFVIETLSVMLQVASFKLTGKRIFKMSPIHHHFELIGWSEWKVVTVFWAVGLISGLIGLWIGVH
The subject of a further experiment is T1, P. aeruginosa ATCC 27853.
T1 construct: ATCC 27853
Kind of experiment: microbe, parasite or virus in culture. The conditions noted are these: Pseudomonas aeruginosa, ATCC27853. On the procedure:
(§1) MICs were determined by a microdilution broth method as recommended by the CLSI with MHB-II. For MICs of stable analogues, a 2-fold dilution of each compound was prepared in DMSO at 100-fold of the final concentration. The strains were inoculated with 5 × 10^5 cfu/mL in 96-well plates (each 100 μL/well), and 1 μL of DMSO solutions of the samples were added (contained less than 1% DMSO). The plates were incubated at 37 °C for 18 h and then MICs were determined. MICs of stable analogues in Table 1 were the highest value in three trials. MICs in Supplementary Table 1 were determined in one trial.  Fig. 2 Results of biological evaluations of hydrazone library. a General structures of hydrazine fragment moiety are shown. Each hydrazine class are represented by different colours (green; BZ, cyan; PA, grey; AC, yellow; AA, orange; LA). b–h MraY inhibitory activity and antibacterial activity of the hydrazone library. The bar graphs show the relative enzyme activity with DMSO as 100% when the compound is treated at given concentration (b,c; TUN at 100 nM, d,e; MRY at 10 nM, f.g; MRD at 100 nM, h; CAP at 1000 nM. n = 1), with the lower bars indicating higher inhibitory activity. The colour of the bars corresponds to Fig. 2a. […] Data of control compounds (van: vancomycin, col: colistin) are shown left column in each panel. E. faecium ATCC 35667, S. aureus ATCC 29213, P. aeruginosa ATCC 27853, K. pneumoniae ATCC 13883, E. cloacae ATCC 13047, A. baumannii ATCC 19606, E. coli ATCC 25922.

The next experiment concerns T2, S. aureus ATCC 29213.
T2 construct: ATCC 29213
Kind of experiment: microbe, parasite or virus in culture. To be noted: Staphylococcus aureus, ATCC29213. Here is the method: as §1

Another experiment relates to T3, E. coli ATCC 25922.
T3 construct: ATCC 25922
In words: microbe, parasite or virus in culture. The conditions noted are these: Escherichia coli, ATCC25922. Here is the method: as §1

The next experiment concerns T4, E. cloacae ATCC 13047.
T4 construct: ATCC 13047
In words: microbe, parasite or virus in culture. The conditions noted are these: Enterobacter cloacae, ATCC13047. Here is the method:
as §1

For the next experiment, the system named is T5, E. faecium ATCC 35667.
T5 construct: ATCC 35667
Kind of experiment: microbe, parasite or virus in culture. To be noted: Enterococcus faecium, ATCC35667. On the procedure:
as §1

The next experiment deals with T6, K. pneumoniae ATCC 13883.
T6 construct: ATCC 13883
Kind of experiment: microbe, parasite or virus in culture. The conditions noted are these: Klebsiella pneumoniae, ATCC13883. Here is the method: as §1

Another experiment deals with T7, A. baumannii ATCC 19606.
T7 construct: ATCC 19606
Kind of experiment: microbe, parasite or virus in culture. To be noted: Acinetobacter baumannii, ATCC19606. Here is the method: as §1

Consider `CC(C)(C)c1ccc(C(=O)N/N=C/c2ccc(CN[C@H](C(=O)O)[C@H](O[C@@H]3O[C@H](CN)[C@@H](O)[C@H]3O)[C@H]3O[C@@H](n4ccc(=O)[nH]c4=O)[C@H](O)[C@@H]3O)cc2)cc1` [MRYp-BZ2], for which the negative logarithm of the IC50 (pIC50) against MraYSA (S. aureus MraY) was 8.62.
Consider `CC[C@H]1OC(=O)[C@H](C)[C@@H](O[C@H]2C[C@@](C)(OC)[C@@H](O)[C@H](C)O2)[C@H](C)[C@@H](O[C@@H]2O[C@H](C)C[C@H](N(C)C)[C@H]2O)[C@](C)(O)C[C@@H](C)CN(C)[C@H](C)[C@@H](O)[C@]1(C)O` [azithromycin], for which the MIC is 50 µM (≈ 37.4 µg/mL) in the experiment on P. aeruginosa ATCC 27853; 5 µM (≈ 3.74 µg/mL) against S. aureus ATCC 29213; 5 µM (≈ 3.74 µg/mL) with E. coli ATCC 25922; 50 µM (≈ 37.4 µg/mL) against E. cloacae ATCC 13047; less than 0.5 µM with E. faecium ATCC 35667; 5 µM (≈ 3.74 µg/mL) in the experiment with K. pneumoniae ATCC 13883. In the experiment with A. baumannii ATCC 19606, this compound came in with an MIC of 50 µM (≈ 37.4 µg/mL).
Regarding `CC[C@H]1OC(=O)[C@H](C)[C@@H](O[C@H]2C[C@@](C)(OC)[C@@H](O)[C@H](C)O2)[C@H](C)[C@@H](O[C@@H]2O[C@H](C)C[C@H](N(C)C)[C@H]2O)[C@](C)(O)C[C@@H](C)C(=O)[C@H](C)[C@@H](O)[C@]1(C)O` [erythromycin], the MIC against P. aeruginosa ATCC 27853 is greater than 50 µM; in the experiment with S. aureus ATCC 29213 it was less than 0.5 µM; in the experiment on E. coli ATCC 25922 it was 50 µM (≈ 36.7 µg/mL); with E. cloacae ATCC 13047, greater than 50 µM; against E. faecium ATCC 35667, less than 0.5 µM; in the experiment on K. pneumoniae ATCC 13883, greater than 50 µM. This compound yielded an MIC with A. baumannii ATCC 19606 of 50 µM (≈ 36.7 µg/mL).
As for `CO[C@H]1/C=C/O[C@@]2(C)Oc3c(C)c(O)c4c(O)c(c(/C=N/N5CCN(C)CC5)c(O)c4c3C2=O)NC(=O)/C(C)=C\C=C\[C@H](C)[C@H](O)[C@@H](C)[C@@H](O)[C@@H](C)[C@H](OC(C)=O)[C@@H]1C` [rifampicin], the MIC in the experiment on P. aeruginosa ATCC 27853 was 50 µM (≈ 41.1 µg/mL); in the experiment on S. aureus ATCC 29213, less than 0.5 µM; against E. coli ATCC 25922, 5 µM (≈ 4.11 µg/mL); with E. cloacae ATCC 13047, 50 µM (≈ 41.1 µg/mL); against E. faecium ATCC 35667, 5 µM (≈ 4.11 µg/mL); against K. pneumoniae ATCC 13883, 50 µM (≈ 41.1 µg/mL). The MIC against A. baumannii ATCC 19606 stood at 5 µM (≈ 4.11 µg/mL).
With `CN[C@@H]1[C@H](O[C@H]2[C@H](O[C@H]3[C@H](O)[C@@H](O)[C@H](N=C(N)N)[C@@H](O)[C@@H]3N=C(N)N)O[C@@H](C)[C@]2(O)C=O)O[C@@H](CO)[C@H](O)[C@H]1O` [streptomycin], the MIC in the experiment on P. aeruginosa ATCC 27853 was 50 µM (≈ 29.1 µg/mL); in the experiment with S. aureus ATCC 29213, 50 µM (≈ 29.1 µg/mL); against E. coli ATCC 25922 it was 50 µM (≈ 29.1 µg/mL); against E. cloacae ATCC 13047 it was greater than 50 µM; against E. faecium ATCC 35667, 50 µM (≈ 29.1 µg/mL); with K. pneumoniae ATCC 13883, 50 µM (≈ 29.1 µg/mL). Also, in the experiment with A. baumannii ATCC 19606, the MIC is greater than 50 µM.
